Reference: patent US20180141913A1 (EISAI R & D MANAGEMENT CO., LTD., priority 2016, published 2018)
Like-named read-outs stand apart in the source and are kept apart here.

Legend:
[1] = tested on: MCF7-WT cells (MCF7 ER-alpha wildtype); assay: In vitro proliferation (viability) assay, MCF7-WT cells; assay type: cell-based; settings: Homo sapiens
Method: (§1) MCF7 BUS cells (Coser, et al., (2003) PNAS 100(24): 13994-13999) were maintained in Dulbecco's Modified Eagle Medium supplemented with 10% FBS, 4 mM L-glutamine and 1× non-essential amino acids. Lenti-X 293T cells (Clontech, Cat #632180) were routinely cultured in Dulbecco's Modified Eagle Medium supplemented with 10% FBS.
(§2) The QuikChange II XL Site-Directed Mutagenesis Kit (Agilent Technologies, Cat #200523) was used to generate Y537S, Y537C, Y537N and D538G mutations within the ERα exon 8. Wild-type ESR1 cDNA (GeneCopoeia Inc., Cat# GC-A0322, accession no. NM 000125) was used as a template with the following mutagenesis primers (where the underlined nucleotides represent site mutations); Y537S: F-AAGAACGTGGTGCCCCTCTCTGACCTGCTGCTGGAGATG (SEQ ID NO: 1), R-CATCTCCAGCAGCAGGTCAGAGAGGGGCACCACGTTCTT (SEQ ID NO: 2); Y537N: F-AAGAACGTGGTGCCCCTCAATGACCTGCTGCTGGAGATG (SEQ ID NO: 3), R-CATCTCCAGCAGCAGGTCATTGAGGGGCACCACGTTCTT (SEQ ID NO: 4); Y537C: F-AAGAACGTGGTGCCCCTCTGTGACCTGCTGCTGGAGATG (SEQ ID NO: 5), R-CATCTCCAGCAGCAGGTCACAGAGGGGCACCACGTTCTT (SEQ ID NO: 6); D538G: F-AACGTGGTGCCCCTCTATGGCCTGCTGCTGGAGATGCTG (SEQ ID NO: 7), R-CAGCATCTCCAGCAGCAGGCCATAGAGGGGCACCACGTT (SEQ ID NO: 8). WT and mutant ESR1 cDNAs were cloned into the designation lentiviral vector pLenti6.3/V5-Dest (Invitrogen, Cat #V533-06). To make lentivirus, DNAs (WT and mutant ESR1) were co-transfected with packaging plasmids into Lenti-X 293T cells using TransIT (Mirus, Cat #MIR 2700). 48 h post-transfection, virus containing media was filtered and added to MCF7 cells in the presence of 8 µg/ml polybrene overnight. Two days following infection, cells were placed under selection with 10 µg/ml blasticidin for 2 weeks for stable expression.
(§3) MCF7-WT and -Y537S cells were seeded at 1500 cells/well in black-walled 96-well plates (assay plates, Costar, Cat #3904). In parallel, cells were also seeded in a separate 96-well plate (8 wells/cell line, control plate) for which a CTG (CellTiter-Glo® Luminescent Viability Assay, Promega, Cat #G7572) was measured the following day (day 0 reading). The day 0 reading was used for the GI50 calculation at the termination of the experiment. The day following seeding, compounds were added to assay plates. Briefly, a 1:4 serial dilution was prepared in DMSO at 200× final concentration for a total of 10 concentrations (9 dilutions containing compound and one is DMSO only). Serially diluted compounds were pipetted into medium to prepare a compound-medium mix at 10× final concentration. 10 μl of compound-medium mix was added to MCF7-WT and -Y537S cells at 3 wells/concentration (triplicate for each concentration). On day 3, media/compound was removed and replaced with fresh media/compound as described above. On day 6, CTG was measured and compared to day 0 readings from control plate to assess GI50.

[2] = tested on: MCF7-Y537S cells (MCF7 ER-alpha Y537S mutant); assay: In vitro proliferation (viability) assay, MCF7-Y537S cells; assay type: cell-based; settings: Homo sapiens
Method: as §1, §2, §3

[3] = MCF7, CellTiter-Glo, day 6 vs day 0, average ± standard deviation, free base and/or salt forms, read-out: MCF7 WT GI50
[4] = MCF7, CellTiter-Glo, day 6 vs day 0, average ± standard deviation, free base and/or salt forms, read-out: MCF7 Y537S GI50
[5] = MCF7, read-out: MCF7 WT GI50 (nM)
[6] = MCF7, read-out: MCF7 Y537S GI50 (nM)

SMILES | GI50 [1, 3] | GI50 [2, 4] | GI50 [1, 5] | GI50 [2, 6]
CNC(=O)/C=C/CNCCOc1ccc(/C(=C(/CC(F)(F)F)c2ccc(F)cc2Cl)c2ccc3[nH]nc(F)c3c2)cc1 [Compound 47, (E)-4-((2-(4-((E)-2-(2-chloro-4-fluorophenyl)-4,4,4-trifluoro-1-(3-fluoro-1H-indazol-5-yl)but-1-en-1-yl)phenoxy)ethyl)amino)-N-methylbut-2-enamide] | 0.64 ± 0.4 nM | 7.25 ± 8.77 nM |  | 
O=C(CCCNCCOc1ccc(/C(=C(/CC(F)(F)F)c2ccccc2)c2ccc3[nH]nc(F)c3c2)cn1)N1CCCC1 [Compound 43] |  |  | 0.15 nM | 3.21 nM
CC/C(=C(/c1ccc(OCCNC/C=C/C(=O)NC)cc1)c1ccc2[nH]nc(F)c2c1)c1ccc(F)cc1Cl [Compound 48, (E)-4-((2-(4-((E)-2-(2-chloro-4-fluorophenyl)-1-(3-fluoro-1H-indazol-5-yl)but-1-en-1-yl)phenoxy)ethyl)amino)-N-methylbut-2-enamide] | 0.8 ± 0.14 nM | 8.25 ± 2.6 nM |  | 
O=C(/C=C/CNCCOc1ccc(/C(=C(/CC(F)(F)F)c2ccccc2)c2ccc3[nH]nc(F)c3c2)cc1)N1CCCCC1 [Compound 52, (E)-1-(piperidin-1-yl)-4-((2-(4-((E)-4,4,4-trifluoro-1-(3-fluoro-1H-indazol-5-yl)-2-phenylbut-1-en-1-yl)phenoxy)ethyl)amino)but-2-en-1-one] | 1.2 nM | 9.3 nM |  | 
CNC(=O)/C=C/CNCCOc1ncc(/C(=C(/CC(F)(F)F)c2ccccc2)c2ccc3[nH]nc(F)c3c2)cn1 [Compound 45, (E)-N-methyl-4-((2-((5-((Z)-4,4,4,4-trifluoro-1-(3-fluoro-1H-indazol-5-yl)-2-phenylbut-1-en-1-yl)pyrimidin-2-yl)oxy)ethyl)amino)but-2-enamide] | 23.2 ± 9.42 nM | 71 ± 8.63 nM |  | 
CNC(=O)CCCNCCOc1ccc(/C(=C(/CC(F)(F)F)c2ccccc2)c2ccc3[nH]nc(F)c3c2)cn1 [Compound 71, (Z)—N-methyl-4-((2-((5-(4,4,4-trifluoro-1-(3-fluoro-1H-indazol-5-yl)-2-phenylbut-1-en-1-yl)pyridin-2-yl)oxy)ethyl)amino)butanamide] | 0.62 nM | 5.31 nM |  | 
CNC(=O)/C=C/CNCCOc1ccc(/C(=C(/CCOC)c2ccccc2)c2ccc3[nH]nc(F)c3c2)cc1 [Compound 65, (E)-4-((2-(4-((E)-1-(3-fluoro-1H-indazol-5-yl)-4-methoxy-2-phenylbut-1-en-1-yl)phenoxy)ethyl)amino)-N-methylbut-2-enamide] | 58.3 ± 48.1 nM | 310 ± 139 nM |  | 
Cl.[2H]C([2H])([2H])N(C(=O)/C=C/CNCCOc1ccc(/C(=C(/CC(F)(F)F)c2ccccc2)c2ccc3[nH]nc(F)c3c2)cn1)C([2H])([2H])[2H] [Compound 24, (E)-N,N-di(^2H3)methyl-4-((2-((5-((Z)-4,4,4-trifluoro-1-(3-fluoro-1H-indazol-5-yl)-2-phenylbut-1-en-1-yl)pyridin-2-yl)oxy)ethyl)amino)but-2-enamide] |  |  | 0.45 ± 0.11 nM | 3.34 ± 1.14 nM
CN(C)C(=O)CCCNCCOc1ccc(/C(=C(/CC(F)(F)F)c2ccccc2)c2ccc3[nH]nc(F)c3c2)cc1 [Compound 1, (E)-N,N-dimethyl-4-((2-(4-(4,4,4-trifluoro-1-(3-fluoro-1H-indazol-5-yl)-2-phenylbut-1-en-1-yl)phenoxy)ethyl)amino)butanamide] | 0.36 ± 0.16 nM | 3.79 ± 1.92 nM |  | 
CNC(=O)/C=C/CNCCOc1cnc(/C(=C(/CC(F)(F)F)c2ccccc2)c2ccc3[nH]nc(F)c3c2)cn1 [Compound 74, (E)-N-methyl-4-((2-((5-((Z)-4,4,4,4-trifluoro-1-(3-fluoro-1H-indazol-5-yl)-2-phenylbut-1-en-1-yl)pyrazin-2-yl)oxy)ethyl)amino)but-2-enamide] | 2.47 ± 0.18 nM | 29.4 ± 11.5 nM |  | 
CNC(=O)CCCCNCCOc1ccc(/C(=C(/CC(F)(F)F)c2ccccc2)c2ccc3[nH]nc(F)c3c2)cn1 [Compound 8, (Z)-N-methyl-5-((2-((5-(4,4,4-trifluoro-1-(3-fluoro-1H-indazol-5-yl)-2-phenylbut-1-en-1-yl)pyridin-2-yl)oxy)ethyl)amino)pentanamide] | 0.7 ± 0.27 nM | 14.7 ± 0.55 nM |  | 
O=C(/C=C/CNCCOc1ccc(/C(=C(\c2ccccc2)C2CCC2)c2ccc3[nH]ncc3c2)cc1)N1CCCC1 [Compound 35] | 3.06 ± 0.25 nM | 27.3 ± 19.9 nM |  | 
CCC/C(=C(/c1ccc(OCCNC/C=C/C(=O)NC)cc1)c1ccc2[nH]nc(F)c2c1)c1ccccc1 [Compound 67, (E)-4-((2-(4-((E)-1-(3-fluoro-1H-indazol-5-yl)-2-phenylpent-1-en-1-yl)phenoxy)ethyl)amino)-N-methylbut-2-enamide] | 5.38 ± 0.66 nM | 87.7 ± 55 nM |  | 

The remaining compounds from weak to strong by GI50 [1, 3], led by results:

GI50 [1, 3] | GI50 [2, 4] | SMILES | GI50 [1, 5] | GI50 [2, 6]
153 ± 27.4 nM | 673 ± 167 nM | CNC(=O)/C=C/CNCCOc1ccc(/C(=C(/CCO)c2ccccc2)c2ccc3[nH]nc(F)c3c2)cc1 [Compound 64, (E)-4-((2-(4-((E)-1-(3-fluoro-1H-indazol-5-yl)-4-hydroxy-2-phenylbut-1-en-1-yl)phenoxy)ethyl)amino)-N-methylbut-2-enamide] |  | 
7.34 ± 0.58 nM | 155 ± 60.1 nM | CC/C(=C(/c1ccc(OCCNC/C=C/C(=O)O)cc1)c1ccc2[nH]ncc2c1)c1ccccc1 [Compound 73, (E)-4-((2-(4-((E)-1-(1H-indazol-5-yl)-2-phenylbut-1-en-1-yl)phenoxy)ethyl)amino)but-2-enoic acid] |  | 
4.12 ± 1.6 nM | 9.08 ± 5.26 nM | CC/C(=C(/c1ccc(OCCNC/C=C/C(=O)NC)nc1)c1ccc2[nH]ncc2c1)c1ccccc1 [Compound 28, (E)-4-((2-((5-((Z)-1-(1H-indazol-5-yl)-2-phenylbut-1-en-1-yl)pyridin-2-yl)oxy)ethyl)amino)-N-methylbut-2-enamide] |  | 
1.86 ± 0.87 nM | 22.2 ± 14.3 nM | O=C(O)/C=C/CNCCOc1ccc(/C(=C(/CC(F)(F)F)c2ccccc2)c2ccc3[nH]nc(F)c3c2)cn1 [Compound 72, (E)-4-((2-((5-((Z)-4,4,4-trifluoro-1-(3-fluoro-1H-indazol-5-yl)-2-phenylbut-1-en-1-yl)pyridin-2-yl)oxy)ethyl)amino)but-2-enoic acid] |  | 
1.73 ± 0.14 nM | 7.65 ± 3.38 nM | O=C(/C=C/CNCCOc1ccc(/C(=C(/CC(F)(F)F)c2ccccc2)c2ccc3[nH]ncc3c2)cc1)N1CCCC1 [Compound 14, (E)-1-(pyrrolidin-1-yl)-4-((2-(4-((E)-4,4,4-trifluoro-1-(1H-indazol-5-yl)-2-phenylbut-1-en-1-yl)phenoxy)ethyl)amino)but-2-en-1-one] |  | 
1.45 nM | 24 nM | O=C1CCCN1CCOc1ccc(/C(=C(/CC(F)(F)F)c2ccccc2)c2ccc3[nH]nc(F)c3c2)cn1 [Compound 12, (Z)-1-(2-((5-(4,4,4-trifluoro-1-(3-fluoro-1H-indazol-5-yl)-2-phenylbut-1-en-1-yl)pyridin-2-yl)oxy)ethyl)pyrrolidin-2-one] |  | 
0.66 ± 0.05 nM | 3.15 ± 0.01 nM | O=C(/C=C/CNCCOc1ccc(/C(=C(/CC(F)(F)F)c2ccccc2)c2ccc3[nH]ncc3c2)cn1)N1CCOCC1 [Compound 19, (E)-1-morpholino-4-((2-((5-((Z)-4,4,4-trifluoro-1-(1H-indazol-5-yl)-2-phenylbut-1-en-yl)pyridin-2-yl)oxy)ethyl)amino)but-2-en-1-one] |  | 
